Source: US20250092031A1, “RIPK3 INHIBITORS AND METHODS OF USE” (Momentum Therapeutics, Inc., priority 2023, published 2025)

tested on: Murine L929 cells; assay: Necroptosis inhibition assay in L929 cells (mTNFα + zVAD, Sytox Green); assay type: cell-based; details: Mus musculus, 10 ng/ml mTNFα and 20 μM zVAD, 6 hours, Sytox Green fluorescence
Protocol: Murine L929 cells (ATCC-CCL-1) were seeded at 10,000 cells/well in a 96-well plate. Cells were treated 48 hours after seeding with 10 ng/ml mTNFα (R&D Systems) and 20 μM zVAD (ChemShuttle) in the presence of different concentrations of compounds ranging from […] to 0.01 μM. Cells treated with 0.1% DMSO or cells treated with TNFα+zVAD were used as control and vehicle respectively.
Assay plates containing cells were incubated for 6 hours at 37° C. and 5% CO2. Necroptosis was assessed using Sytox Green Nucleic Acid Stain (Invitrogen). After incubation, 100 μL of Sytox dye at 2 μM (2×) diluted in HBSS 1× was added in each well and incubated for 15 min at room temperature. Fluorescence (500ex/530em) was recorded using the Cytation 5 microplate reader (Biotek).
Percentage of necroptosis inhibition was calculated as the percent compared to control and vehicle conditions which correspond to 100% and 0% respectively. The half-maximum necroptosis inhibition (IC50) levels were calculated using GraphPad Prism software and are shown in Table 3 (NT represents compound not tested).

Q: With `COc1ccc(-c2ccc3c(Nc4ccc(C5CCN(C)CC5)c(F)c4)ccnc3c2)cc1` [Compound 2, N-(3-fluoro-4-(1-methylpiperidin-4-yl)phenyl)-7-(4-methoxyphenyl)quinolin-4-amine] as the molecule, how does the IC50 read?
A: Its IC50 is > 10 µM.

Q: How did the IC50 turn out when `CN1CCC(c2ccc(Nc3ccnc4cc(-c5ccccc5F)ccc34)nc2)CC1` [Compound 3, 7-(2-fluorophenyl)-N-(5-(1-methylpiperidin-4-yl)pyridin-2-yl)quinolin-4-amine] was run?
A: Its IC50 is > 10 µM.

Q: Which IC50 does the source give for `CN1CCC(c2ccc(Nc3ccc4nccc(Nc5ccc6scnc6c5)c4c3)cc2F)CC1` [Compound 4, N4-(benzo[d]thiazol-5-yl)-N6-(3-fluoro-4-(1-methylpiperidin-4-yl)phenyl)quinoline-4,6-diamine] here?
A: Its IC50 is > 10 µM.

Q: For `CN1CCC(c2ccc(Nc3ccnc4cc(-c5ccccc5F)ccc34)cc2F)CC1` [Compound 5, N-(3-fluoro-4-(1-methylpiperidin-4-yl)phenyl)-7-(2-fluorophenyl)quinolin-4-amine], which IC50 is on record?
A: Its IC50 is > 10 µM.

Q: Which IC50 does the source give for `CN1CCC(c2ccc(Nc3ccnc4cc(-c5ccccn5)ccc34)cc2F)CC1` [Compound 6, N-(3-fluoro-4-(1-methylpiperidin-4-yl)phenyl)-7-(pyridin-2-yl)quinolin-4-amine] here?
A: The IC50 was > 10 µM.

Q: How did the IC50 turn out when `COc1ccc(-c2ccc3c(Nc4ccc(C5CCN(C)CC5)cn4)ccnc3c2)cc1` [Compound 7, 7-(4-methoxyphenyl)-N-(5-(1-methylpiperidin-4-yl)pyridin-2-yl)quinolin-4-amine] was run?
A: Its IC50 is > 10 µM.

Q: Which IC50 does the source give for `CN1CCC(c2ccc(Nc3ccnc4cc(-c5ccccn5)ccc34)nc2)CC1` [Compound 8, N-(5-(1-methylpiperidin-4-yl)pyridin-2-yl)-7-(pyridin-2-yl)quinolin-4-amine] here?
A: Its IC50 is > 10 µM.

Q: Which IC50 does the source give for `CN1CCC(c2ccc(Nc3ccc4nccc(Nc5ccc6scnc6c5)c4c3)nc2)CC1` [Compound 9, N4-(benzo[d]thiazol-5-yl)-N6-(5-(1-methylpiperidin-4-yl)pyridin-2-yl)quinoline-4,6-diamine] here?
A: The IC50 was > 10 µM.

Q: How did the IC50 turn out when `Cc1ccc(Oc2ccnc3cc(-c4ccc(CN5CCN(C)CC5)c(F)c4)ccc23)cc1` [Compound 10, 7-(3-fluoro-4-((4-methylpiperazin-1-yl)methyl)phenyl)-4-(p-tolyloxy)quinoline] was run?
A: The IC50 was > 10 µM.

Q: `c1cc(Nc2ccc3scnc3c2)c2cc(-c3ccc(N4CCOCC4)cc3)ccc2n1` [Compound 18, N-(6-(4-morpholinophenyl)quinolin-4-yl)benzo[d]thiazol-5-amine] was tested. Which IC50 did it give?
A: Its IC50 is < 10 µM.

Q: Which IC50 does the source give for `COc1ccc(Nc2ccnc3ccc(-c4ccc(N5CCN(C)CC5)cc4)cc23)cc1OC` [Compound 19, N-(3,4-dimethoxyphenyl)-6-(4-(4-methylpiperazin-1-yl)phenyl)quinolin-4-amine] here?
A: The IC50 was > 10 µM.

Q: With `CN1CCN(c2ccc(-c3ccc4nccc(Nc5ccc(Cl)c(Cl)c5)c4c3)cc2)CC1` [Compound 20, N-(3,4-dichlorophenyl)-6-(4-(4-methylpiperazin-1-yl)phenyl)quinolin-4-amine] as the molecule, how does the IC50 read?
A: The IC50 was < 10 µM.

Q: With `CN1CCN(c2ccc(-c3ccc4nccc(Nc5ccc6scnc6c5)c4c3)cn2)CC1` [Compound 24, N-(6-(6-(4-methylpiperazin-1-yl)pyridin-3-yl)quinolin-4-yl)benzo[d]thiazol-5-amine] as the molecule, how does the IC50 read?
A: Its IC50 is < 10 µM.

Q: With `c1cc(Nc2ccc3scnc3c2)c2cc(-c3ccc(N4CCCCC4)nc3)ccc2n1` [Compound 25, N-(6-(6-(piperidin-1-yl)pyridin-3-yl)quinolin-4-yl)benzo[d]thiazol-5-amine] as the molecule, how does the IC50 read?
A: The IC50 was > 10 µM.

Q: `Nc1nc2cc(Nc3ccnc4ccc(-c5ccc(CN6CCCC6)cc5F)cc34)ccc2s1` [Compound 26, N5-(6-(2-fluoro-4-(pyrrolidin-1-ylmethyl)phenyl)quinolin-4-yl)benzo[d]thiazole-2,5-diamine] was tested. Which IC50 did it give?
A: Its IC50 is > 10 µM.

Q: `c1cc(Nc2ccc3scnc3c2)c2cc(-c3ccc(N4CCCC4)cc3)ccc2n1` [Compound 30, N-(6-(4-(pyrrolidin-1-yl)phenyl)quinolin-4-yl)benzo[d]thiazol-5-amine] was tested. Which IC50 did it give?
A: Its IC50 is > 10 µM.

Q: `COc1ccc(Nc2ccnc3ccc(-c4ccc(CN5CCN(C)CC5)cc4F)cc23)cc1OC` [Compound 32, N-(3,4-dimethoxyphenyl)-6-(2-fluoro-4-((4-methylpiperazin-1-yl)methyl)phenyl)quinolin-4-amine] was tested. Which IC50 did it give?
A: Its IC50 is > 10 µM.

Q: Which IC50 does the source give for `CN1CCN(Cc2ccc(-c3ccc4nccc(Nc5ccc(Cl)c(F)c5)c4c3)c(F)c2)CC1` [Compound 33, N-(4-chloro-3-fluorophenyl)-6-(2-fluoro-4-((4-methylpiperazin-1-yl)methyl)phenyl)quinolin-4-amine] here?
A: Its IC50 is < 10 µM.

Q: For `CC(C)(C)OC(=O)N1CCN(Cc2ccc(-c3ccc4nccc(Nc5ccc6scnc6c5)c4c3)c(F)c2)CC1` [Compound 38, tert-butyl 4-(4-(4-(benzo[d]thiazol-5-ylamino)quinolin-6-yl)-3-fluorobenzyl)piperazine-1-carboxylate], which IC50 is on record?
A: Its IC50 is < 10 µM.

Q: Which IC50 does the source give for `N#Cc1cc(-c2ccc3nccc(Nc4ccc5scnc5c4)c3c2)ccc1N1CCCC1` [Compound 39, 5-(4-(benzo[d]thiazol-5-ylamino)quinolin-6-yl)-2-(pyrrolidin-1-yl)benzonitrile] here?
A: The IC50 was > 10 µM.

Q: `Fc1cc(CN2CCC(C(F)(F)F)CC2)ccc1-c1ccc2nccc(Nc3ccc4scnc4c3)c2c1` [Compound 42, N-(6-(2-fluoro-4-((4-(trifluoromethyl)piperidin-1-yl)methyl)phenyl)quinolin-4-yl)benzo[d]thiazol-5-amine] was tested. Which IC50 did it give?
A: Its IC50 is < 10 µM.

Q: With `c1cc(Nc2ccc3scnc3c2)c2cc(-c3ccc(OCCN4CCCCC4)cc3)ccc2n1` [Compound 44, N-(6-(4-(2-(piperidin-1-yl)ethoxy)phenyl)quinolin-4-yl)benzo[d]thiazol-5-amine] as the molecule, how does the IC50 read?
A: Its IC50 is < 10 µM.

Q: For `Fc1ccc(CN2CCCCC2)cc1-c1ccc2nccc(Nc3ccc4scnc4c3)c2c1` [Compound 55, N-(6-(2-fluoro-5-(piperidin-1-ylmethyl)phenyl)quinolin-4-yl)benzo[d]thiazol-5-amine], which IC50 is on record?
A: The IC50 was < 10 µM.

Q: For `Fc1ccc(CN2CCCCC2)cc1-c1ccc2c(Nc3ccc4scnc4c3)ccnc2c1` [Compound 56, N-(7-(2-fluoro-5-(piperidin-1-ylmethyl)phenyl)quinolin-4-yl)benzo[d]thiazol-5-amine], which IC50 is on record?
A: Its IC50 is > 10 µM.

Q: Which IC50 does the source give for `CC(C)(C)OC(=O)N1C2CCC1CN(Cc1ccc(-c3ccc4nccc(Nc5ccc6scnc6c5)c4c3)c(F)c1)C2` [Compound 57, tert-butyl 3-(4-(4-(benzo[d]thiazol-5-ylamino)quinolin-6-yl)-3-fluorobenzyl)-3,8-diazabicyclo[3.2.1]octane-8-carboxylate] here?
A: Its IC50 is > 10 µM.

Q: With `CC(C)(C)OC(=O)N1C2CCC1CN(Cc1ccc(-c3ccc4c(Nc5ccc6scnc6c5)ccnc4c3)c(F)c1)C2` [Compound 58, tert-butyl 3-(4-(4-(benzo[d]thiazol-5-ylamino)quinolin-7-yl)-3-fluorobenzyl)-3,8-diazabicyclo[3.2.1]octane-8-carboxylate] as the molecule, how does the IC50 read?
A: Its IC50 is < 10 µM.

Q: `O=C(CO)N1CCC(c2ccc(-c3ccc4nccc(Nc5ccc6scnc6c5)c4c3)cc2)CC1` [Compound 239, 1-(4-(4-(4-(benzo[d]thiazol-5-ylamino)quinolin-6-yl)phenyl)piperidin-1-yl)-2-hydroxyethan-1-one] was tested. Which IC50 did it give?
A: Its IC50 is < 1 µM.

Q: With `c1cc(Nc2ccc3scnc3c2)c2cc(-c3ccc(C4CCNCC4)cc3)ccc2n1` [Compound 240, N-(6-(4-(piperidin-4-yl)phenyl)quinolin-4-yl)benzo[d]thiazol-5-amine] as the molecule, how does the IC50 read?
A: The IC50 was > 1 µM.

Q: `O=C(c1ccc(-c2ccc3nccc(Nc4ccc5scnc5c4)c3c2)c(F)c1)N1CCCC1` [Compound 241, (4-(4-(benzo[d]thiazol-5-ylamino)quinolin-6-yl)-3-fluorophenyl)(pyrrolidin-1-yl)methanone] was tested. Which IC50 did it give?
A: The IC50 was 0.388 µM.

Q: For `O=C(c1ccc(-c2ccc3c(Nc4ccc5scnc5c4)ccnc3c2)c(F)c1)N1CCCC1` [Compound 242, (4-(4-(benzo[d]thiazol-5-ylamino)quinolin-7-yl)-3-fluorophenyl)(pyrrolidin-1-yl)methanone], which IC50 is on record?
A: Its IC50 is < 1 µM.

Q: With `O=C(c1ccc(-c2ccc3nccc(Nc4ccc5scnc5c4)c3c2)c(F)c1)N1CCOCC1` [Compound 243, (4-(4-(benzo[d]thiazol-5-ylamino)quinolin-6-yl)-3-fluorophenyl)(morpholino)methanone] as the molecule, how does the IC50 read?
A: Its IC50 is < 1 µM.

Q: `CN(C)C(=O)c1ccc(-c2ccc3nccc(Nc4ccc5scnc5c4)c3c2)c(F)c1` [Compound 245, 4-(4-(benzo[d]thiazol-5-ylamino)quinolin-6-yl)-3-fluoro-N,N-dimethylbenzamide] was tested. Which IC50 did it give?
A: The IC50 was < 1 µM.

Q: Which IC50 does the source give for `CN(C)C(=O)c1ccc(-c2ccc3c(Nc4ccc5scnc5c4)ccnc3c2)c(F)c1` [Compound 246, 4-(4-(benzo[d]thiazol-5-ylamino)quinolin-7-yl)-3-fluoro-N,N-dimethylbenzamide] here?
A: Its IC50 is < 1 µM.

Q: `CC1CCCCN1C(=O)c1ccc(-c2ccc3nccc(Nc4ccc5scnc5c4)c3c2)c(F)c1` (stereo not drawn) [Compound 247, (4-(4-(benzo[d]thiazol-5-ylamino)quinolin-6-yl)-3-fluorophenyl)(2-methylpiperidin-1-yl)methanone] was tested. Which IC50 did it give?
A: Its IC50 is > 1 µM.

Q: With `CC1CCCCN1C(=O)c1ccc(-c2ccc3c(Nc4ccc5scnc5c4)ccnc3c2)c(F)c1` (stereo not drawn) [Compound 248, (4-(4-(benzo[d]thiazol-5-ylamino)quinolin-7-yl)-3-fluorophenyl)(2-methylpiperidin-1-yl)methanone] as the molecule, how does the IC50 read?
A: Its IC50 is < 1 µM.

Q: For `O=C1CN(Cc2ccc(-c3ccc4nccc(Nc5ccc6sccc6c5)c4c3)c(F)c2)CCN1` [Compound 256, 4-(4-(4-(benzo[b]thiophen-5-ylamino)quinolin-6-yl)-3-fluorobenzyl)piperazin-2-one], which IC50 is on record?
A: Its IC50 is > 10 µM.
